Literature values, collected in patent publication US20110245283A1, “Methods for predicting the response to statins” (priority 2009, published 2011).
Like-named read-outs stand apart in the source and are kept apart here.

Details: cited from earlier work

| SMILES | Severity of the interaction (with Lova) | Severity of the interaction (with Simva) | Increased risk of toxicity or reduced statin effectiveness (with Atorva) | Severity of the interaction (with Atorva) | Increased risk of toxicity or reduced statin effectiveness (with Lova) | Increased risk of toxicity or reduced statin effectiveness (with Prava) | Severity of the interaction (with Prava) | Increased risk of toxicity or reduced statin effectiveness (with Simva) | Increased risk of toxicity or reduced statin effectiveness (with Fluva) | Severity of the interaction (with Fluva) | Increased risk of toxicity or reduced statin effectiveness (with Rosuva) | Severity of the interaction (with Rosuva) |
| --- | --- | --- | --- | --- | --- | --- | --- | --- | --- | --- | --- | --- |
| CCCCc1oc2ccccc2c1C(=O)c1cc(I)c(OCCN(CC)CC)c(I)c1 [Amiodarone] | 3 | 3 |  |  |  |  |  |  |  |  |  |  |
| CC(C)CN(C[C@@H](O)[C@H](Cc1ccccc1)NC(=O)O[C@H]1CCOC1)S(=O)(=O)c1ccc(N)cc1 [Amprenavir] | 3 | 3 | (+) | 2 | (+) | (+) | 2 | (+) |  |  |  |  |
| COC(=O)N[C@H](C(=O)N[C@@H](Cc1ccccc1)[C@@H](O)CN(Cc1ccc(-c2ccccn2)cc1)NC(=O)[C@@H](NC(=O)OC)C(C)(C)C)C(C)(C)C [Atazanavir] | 3 | 3 | (+) | 3 | (+) |  |  | (+) |  |  |  |  |
| CC(C)(Oc1ccc(CCNC(=O)c2ccc(Cl)cc2)cc1)C(=O)O [Bezafibrate] | 3 | 3 | (+) | 3 | (+) | (+) | 3 | (+) | (+) | 3 |  |  |
| COc1ccccc1Oc1c(NS(=O)(=O)c2ccc(C(C)(C)C)cc2)nc(-c2ncccn2)nc1OCCO [Bosentan] | 2 | 2 |  | 2 |  |  |  |  |  |  |  |  |
| NC(=O)N1c2ccccc2C=Cc2ccccc21 [Carbamazepine] |  | 2 |  |  |  |  |  |  |  |  |  |  |
| CC(C)(Oc1ccc(C2CC2(Cl)Cl)cc1)C(=O)O (stereo not shown) [Ciprofibrate] | 3 | 3 | (+) | 3 | (+) | (+) | 3 | (+) | (+) | 3 |  |  |
| CC[C@H]1OC(=O)[C@H](C)[C@@H](O[C@H]2C[C@@](C)(OC)[C@@H](O)[C@H](C)O2)[C@H](C)[C@@H](O[C@@H]2O[C@H](C)C[C@H](N(C)C)[C@H]2O)[C@](C)(OC)C[C@@H](C)C(=O)[C@H](C)[C@@H](O)[C@]1(C)O [Clarithromycin] | 3 | 3 | (+) | 3 | (+) |  |  | (+) |  |  |  |  |
| CCOC(=O)C(C)(C)Oc1ccc(Cl)cc1 [Clofibrate] | 3 | 3 | (+) | 3 | (+) | (+) | 3 | (+) | (+) | 3 |  |  |
| COC(=O)[C@H](c1ccccc1Cl)N1CCc2sccc2C1 [Clopidogrel] |  |  |  |  |  |  |  |  | (+) | 2 |  |  |
| CCN(CC)CCS(=O)(=O)[C@@H]1CCN2C(=O)c3coc(n3)CC(=O)C[C@H](O)/C=C(C)/C=C/CNC(=O)/C=C/[C@@H](C)[C@@H](C(C)C)OC(=O)[C@@H]12 [Dalfopristin] | 3 | 3 | (+) | 3 | (+) | (+) | 3 | (+) | (+) | 3 |  |  |
| C#C[C@]1(O)CC[C@H]2[C@@H]3CCC4=Cc5oncc5C[C@]4(C)[C@H]3CC[C@@]21C [Danazol] |  |  |  |  |  |  |  | (+) |  |  |  |  |
| CC(C)Nc1cccnc1N1CCN(C(=O)c2cc3cc(NS(C)(=O)=O)ccc3[nH]2)CC1 [Delavirdine] |  |  | (+) | 2 |  |  |  |  |  |  |  |  |
| COc1ccc2nc([S@@+]([O-])Cc3ncc(C)c(OC)c3C)[nH]c2c1 [Esomeprazole] |  |  | (+) | 3 |  |  |  |  |  |  |  |  |
| CC(C)OC(=O)C(C)(C)Oc1ccc(C(=O)c2ccc(Cl)cc2)cc1 [Fenofibrate] |  |  | (+) |  | (+) | (+) |  | (+) | (+) |  |  |  |
| OC(Cn1cncn1)(Cn1cncn1)c1ccc(F)cc1F [Fluconazole] |  |  | (+) |  | (+) |  |  | (+) | (+) |  | (+) |  |
| CC(C)CN(C[C@@H](OP(=O)(O)O)[C@H](Cc1ccccc1)NC(=O)O[C@H]1CCOC1)S(=O)(=O)c1ccc(N)cc1 [Fosamprenavir] | 3 | 3 | (+) | 3 | (+) |  |  | (+) |  |  |  |  |
| O=C1NC(c2ccccc2)(c2ccccc2)C(=O)N1COP(=O)(O)O [Fosphenytoin] |  | 2 |  | 2 |  |  |  |  |  |  |  |  |
| Cc1ccc(C)c(OCCCC(C)(C)C(=O)O)c1 [Gemfibrozil] | 3 | 3 | (+) | 3 | (+) | (+) | 3 | (+) | (+) | 3 | (+) | 3 |
| CCC(C)n1ncn(-c2ccc(N3CCN(c4ccc(OCC5COC(Cn6cncn6)(c6ccc(Cl)cc6Cl)O5)cc4)CC3)cc2)c1=O (stereo not shown) [Itraconazole] | 4 | 4 | (+) | 3 | (+) |  |  | (+) |  |  | (+) | 2 |
| CC(=O)N1CCN(c2ccc(OCC3COC(Cn4ccnc4)(c4ccc(Cl)cc4Cl)O3)cc2)CC1 (stereo not shown) [Ketoconazole] | 3 | 3 | (+) | 3 | (+) |  |  | (+) |  |  |  |  |
| COCC(=O)O[C@]1(CCN(C)CCCc2nc3ccccc3[nH]2)CCc2cc(F)ccc2[C@@H]1C(C)C [Mibefradil] | 4 | 4 | (+) | 3 | (+) | (+) | 1 | (+) | (+) | 1 |  |  |
| CCc1nn(CCCN2CCN(c3cccc(Cl)c3)CC2)c(=O)n1CCOc1ccccc1 [Nefazodone] | 3 | 3 | (+) | 3 | (+) | (+) | 2 | (+) |  |  |  |  |
| Cc1c(O)cccc1C(=O)N[C@@H](CSc1ccccc1)[C@H](O)CN1C[C@H]2CCCC[C@H]2C[C@H]1C(=O)NC(C)(C)C [Nelfinavir] | 3 | 3 | (+) | 3 | (+) |  |  | (+) |  |  |  |  |
| O=C(O)c1cccnc1 [Niacin] | 3 | 3 | (+) | 3 | (+) | (+) | 2 | (+) | (+) | 2 | (+) | 3 |
| COc1ccc2[nH]c([S+]([O-])Cc3ncc(C)c(OC)c3C)nc2c1 (stereo not shown) [Omeprazole] |  |  |  |  |  |  |  |  | (+) | 1 |  |  |
| O=C1NC(=O)C(c2ccccc2)(c2ccccc2)N1 [Phenytoin] |  | 2 |  | 2 |  |  |  |  | (+) | 2 |  |  |
| CO[C@H]1/C=C/O[C@@]2(C)Oc3c(C)c(O)c4c(O)c(c(/C=N/N5CCN(C)CC5)c(O)c4c3C2=O)NC(=O)/C(C)=C\C=C\[C@H](C)[C@H](O)[C@@H](C)[C@@H](O)[C@@H](C)[C@H](OC(C)=O)[C@@H]1C [Rifampin] |  | 2 |  |  |  |  |  |  |  | 1 |  |  |
| Cc1nc2n(c(=O)c1CCN1CCC(c3noc4cc(F)ccc34)CC1)CCCC2 [Risperidone] |  | 3 |  |  |  |  |  | (+) |  |  |  |  |
